From US20250186489A1, “REPROGRAMMING OF CELLS TO TYPE 1 CONVENTIONAL DENDRITIC CELLS OR ANTIGEN-PRESENTING CELLS” (Asgard Therapeutics AB, priority 2021, published 2025)

Experiments:
[1] = system: human embryonic fibroblasts (HEF); test: cDC1 reprogramming efficiency of human embryonic fibroblasts, flow cytometry for CD45+HLA-DR+ cells at day 9; type: cell-based; details: for effect on cDC1 reprogramming efficiency when co-expressed with PU.1, IRF8 and BATF3: HEF co-transduced with TetO-PIB, M2rtTA and the individual factor
Procedure: HEFs, HDFs and Clec9a-tdTomato MEFs were seeded at a density of 40,000 cells per well and MSCs at a density of 50,000 cells per well on 0.1% gelatin coated 6-well plates. On the following day, cells were incubated overnight with either a ratio of 1:1 TetO-PIB and M2rtTA, SFFV-PIB-GFP or SFFV-GFP lentiviral particles in media supplemented with 8 μg/ml polybrene. Cells were transduced overnight twice in consecutive days and media replaced in between. After the second transduction, media was replaced by normal growth media (day 0). When using TetO-PIB, media was supplemented with Dox (1 μg/ml). Media was changed every 2-3 days for the duration of cultures. When stated, media was supplemented with LPS (100 ng/ml, Enzo), Poly I:C (25 μg/ml, InvivoGen) and R848 (3 μg/ml, InvivoGen) overnight. Cytokines were added at day 2 and kept for the duration of cultures; For reprogramming in xeno-free conditions, MSCs were cultured in X-Vivo 15 (Lonza) after transduction and media changed every 2-3 days for the duration of cultures.
For the analysis of surface marker expression, human and mouse cells were dissociated and incubated with antibodies diluted in PBS 5% FBS at 4° C. for 30 minutes in the presence of mouse or rat serum (1/100, GeneTex), for human and mouse cells respectively, to block unspecific binding. Cells were washed and resuspended in PBS 5% FBS and analyzed in BD FACSCanto II or BD LSRFortessa flow cytometers (BD Biosciences), unless stated otherwise. DAPI was used for dead cell exclusion. Flow cytometry data were analyzed using FlowJo software (FLOWJO, LLC, version 10.6.1). All flow cytometry analyses were performed in live single cell gates.
Coding regions of ID2, TXNIP, ZFP36, PLEK, SUB1, JUNB, CREM, KLF4, MXD1, LITAF, IRF7, FOS, NMI, TFEC, SP110, IRF5, STAT2, BATF, ZNF267, IRF1, RELB and BATF2 were individually cloned in the pFUW-TetO plasmid. […] Reprogramming efficiency was evaluated by flow cytometry in HEFs 9 days after transcription factor overexpression.
17 human hematopoietic cytokines including inflammatory mediators (Table 3) were individually added to the culture media 2 days after PIB induction in HEFs, and reprogramming efficiency was measured at day 9. Changes in reprogramming efficiency were analysed using both single cytokines and combinations of two or three cytokines.
The impact on reprogramming efficiency after a combination of cytokine treatment and SFFV-driven PIB induction was evaluated. The scPred system was used for integration with “natural” DCs. See previous Examples for experimental details.

[2] = system: Clec9a-tdTomato mouse embryonic fibroblasts (MEFs); test: Replacement of PU.1 by homologs in cDC1 reprogramming of Clec9a-tdTomato MEFs; type: cell-based; details: for tdTomato^+ cells (Clec9a reporter activation): factor in combination with IRF8 and BATF3
Procedure: Coding regions of SPIB and SPIC were individually cloned in the pFUW-TetO plasmid. Lentiviral particles encoding each individual transcription factor or the reverse tetracycline transactivator M2rtTA under the control of constitutively active human ubiquitin C promoter (pFUW-UbC-M2rtTA) were used for co-transduction (Rosa et al. 2018). Reprogramming efficiency was evaluated by flow cytometry in Clec9a-tdTomato mouse embryonic fibroblasts (MEFs) 9 days after transcription factor overexpression.

[3] = HEF with Dox-inducible PIB, individual cytokine
[4] = HEF with SFFV-PIB in the presence of anti-inflammatory cytokine

Molecule: GM-CSF: cytokine
- impact on reprogramming efficiency [1, 3]: did not impact reprogramming efficiency

Molecule: IL-1β: cytokine
- fold increase in reprogramming efficiency versus condition without cytokines ([1]; HEF with Dox-inducible PIB): 3 fold

Molecule: IL-6: cytokine
- fold increase in reprogramming efficiency versus condition without cytokines ([1]; HEF with Dox-inducible PIB): 2.5 fold

Molecule: SPIB: ETS-domain transcription factor, PU.1 homolog, SEQ ID NO: 23
- reporter activation by the factor alone [2]: not able to activate the DC-specific reporter
- tdTomato^+ cells (Clec9a reporter activation) [2]: about 8.14±1.16%
- tdTomato^+ cells co-expressing CD45 and MHC-II ([2]; factor in combination with IRF8 and BATF3, gated in tdTomato^+): 33.63±3.76%
- ability to replace PU.1 in cDC1 reprogramming ([2]; with IRF8 and BATF3): could replace PU.1
- fold increase in tdTomato^+ cells co-expressing CD45 and MHC-II in comparison to PU.1 ([2]; with IRF8 and BATF3): 2 fold

Molecule: SPIC: ETS-domain transcription factor, PU.1 homolog, SEQ ID NO: 25
- reporter activation by the factor alone [2]: not able to activate the DC-specific reporter
- tdTomato^+ cells (Clec9a reporter activation) [2]: 1.46±0.73%
- ability to replace PU.1 in cDC1 reprogramming ([2]; with IRF8 and BATF3): could replace PU.1

Molecule: TGF-β
- fold reduction of reprogramming efficiency [1, 4]: 2 fold
- impact on CD40 expression in hiDCs [1, 4]: did not impact CD40 expression

Molecule: TNF-α
- fold increase in reprogramming efficiency versus condition without cytokines ([1]; HEF with Dox-inducible PIB): 3 fold

B1: FLT3L: cytokine (protein, UniProt P49771 27-235, looked up)
Fms-related tyrosine kinase 3 …: TQDCSFQHSPISSDFAVKIRELSDYLLQDYPVTVASNLQDEELCGGLWRLVLAQRWMERLKTVAGSKMQGLLERVNTEIHFVTKCAFQPPPSCLRFVQTNISRLLQETSEQLVALKPWITRQNFSRCLELQCQPDSSTLPPPWSPRPLEATAPTAPQPPLLLLLLLPVGLLLLAAAWCLHWQRTRRRTPRPGEQVPPVPSPQDLLLVEH
- impact on reprogramming efficiency [1, 3]: did not impact reprogramming efficiency

B2: IL-10: anti-inflammatory cytokine (protein, UniProt P22301 19-178, looked up)
Interleukin-10: SPGQGTQSENSCTHFPGNLPNMLRDLRDAFSRVKTFFQMKDQLDNLLLKESLLEDFKGYLGCQALSEMIQFYLEEVMPQAENQDPDIKAHVNSLGENLKTLRLRLRRCHRFLPCENKSKAVEQVKNAFNKLQEKGIYKAMSEFDIFINYIEAYMTMKIRN
- impact on CD40 expression in hiDCs [1, 4]: did not impact CD40 expression
- impact on reprogramming efficiency [1, 4]: did not impact reprogramming efficiency

B3: BATF: nuclear basic leucine zipper transcription factor, SEQ ID NO: 19 (protein, listed as Homo sapiens)
chain: MPHSSDSSDSSFSRSPPPGKQDSSDDVRRVQRREKNRIAAQKSRQRQTQKADTLHLESEDLEKQNAALRKEIKQLTEELKYFTSVLNSHEPLCSVLAASTPSPPEVVYSAHAFHQPHVSSPRFQP
modifications: basic leucine zipper transcriptional factor ATF-like [Homo sapiens], peptide sequence
- effect on cDC1 reprogramming efficiency when co-expressed with PU.1, IRF8 and BATF3 [1]: increased cDC1 reprogramming efficiency

B4: Oncostatin M: cytokine (protein, UniProt P13725 26-221, looked up)
Oncostatin-M: AAIGSCSKEYRVLLGQLQKQTDLMQDTSRLLDPYIRIQGLDVPKLREHCRERPGAFPSEETLRGLGRRGFLQTLNATLGCVLHRLADLEQRLPKAQDLERSGLNIEDLEKLQMARPNILGLRNNIYCMAQLLDNSDTAEPTKAGRGASQPPTPTPASDAFQRKLEGCRFLHGYHRFMHSVGRVFSKWGESPNRSRR
- fold increase in reprogramming efficiency versus condition without cytokines ([1]; HEF with Dox-inducible PIB): 4 fold

B5: IRF7: transcription factor of the interferon regulatory factor family, SEQ ID NO: 21 (protein, listed as Homo sapiens)
chain: MPVPERPAAGPDSPRPGTRRAAPRVLFGEWLLGEISSGCYEGLQWLDEARTCFRVPWKHFARKDLSEADARIFKAWAVARGRWPPSSRGGGPPPEAETAERAGWKTNFRCALRSTRRFVMLRDNSGDPADPHKVYALSRELCWREGPGTDQTEAEAPAAVPPPQGGPPGPFLAHTHAGLQAPGPLPAPAGDKGDLLLQAVQQSCLADHLLTASWGADPVPTKAPGEGQEGLPLTGACAGGPGLPAGELYGWAVETTPSPGPQPAALTTGEAAAPESPHQAEPYLSPSPSACTAVQEPSPGALDVTIMYKGRTVLQKVVGHPSCTFLYGPPDPAVRATDPQQVAFPSPAELPDQKQLRYTEELLRHVAPGLHLELRGPQLWARRMGKCKVYWEVGGPPGSASPSTPACLLPRNCDTPIFDFRVFFQELVEFRARQRRGSPRYTIYLGFGQDLSAGRPKEKSLVLVKLEPWLCRVHLEGTQREGVSSLDSSSLSLCLSSANSLYDDIECFLMELEQPA
modifications: Interferon regulatory factor 7 [Homo sapiens], peptide sequence
- effect on cDC1 reprogramming efficiency when co-expressed with PU.1, IRF8 and BATF3 [1]: increased cDC1 reprogramming efficiency

B6: IL-4: cytokine (protein, UniProt P05112 25-153, looked up)
Interleukin-4: HKCDITLQEIIKTLNSLTEQKTLCTELTVTDIFAASKNTTEKETFCRAATVLRQFYSHHEKDTRCLGATAQQFHRHKQLIRFLKRLDRNLWGLAGLNSCPVKEANQSTLENFLERLKTIMREKYSKCSS
- impact on reprogramming efficiency [1, 3]: did not impact reprogramming efficiency
